Experimental data published in PubChem BioAssay (NCI).
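Results reflect a 48-hour exposure of cells in 96-well plates to compound at five concentrations. TGI marks complete inhibition of growth.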

Columns and labels:
Experiment in all cases: inhibition of tumour cell growth, NCI panel, 48 h
[1] = system: M14 melanoma
[2] = system: K-562 leukemia
[3] = system: SF-295 CNS
[4] = system: A549 NSCLC
[5] = system: SW-620 colon
[6] = system: OVCAR-4 ovarian
[7] = system: HOP-62 NSCLC
[8] = system: NCI-H226 lung
[9] = system: NCI-H23 lung
[10] = system: HL-60(TB) leukemia
[11] = system: SNB-75 CNS
[12] = system: OVCAR-8 ovarian
[13] = system: U251 CNS
[14] = system: NCI/ADR-RES ovarian
[15] = system: SF-268 CNS
[16] = system: MCF7 breast
[17] = system: MALME-3M melanoma

| SMILES | TGI [1] | TGI [2] | TGI [3] | TGI [4] | TGI [5] | TGI [6] | TGI [7] | TGI [8] | TGI [9] | TGI [10] | TGI [11] | TGI [12] | TGI [13] | TGI [14] | TGI [15] | TGI [16] | TGI [17] |
| --- | --- | --- | --- | --- | --- | --- | --- | --- | --- | --- | --- | --- | --- | --- | --- | --- | --- |
| O=C1OC(c2ccccc2)=N/C1=C\c1ccc([N+](=O)[O-])cc1 | > 100 µM | > 100 µM | > 100 µM | > 100 µM | > 100 µM | > 100 µM | > 100 µM | 18.9 µM | > 100 µM | > 100 µM | > 100 µM | > 100 µM | > 100 µM | 55.1 µM | > 100 µM | > 100 µM |  |
| C[N+]12C=CC=C1C(N1CCCC1)c1scc(-c3ccc(Br)cc3)c12 (configuration not stated) | > 66.4 µM | > 89.9 µM | > 100 µM | > 100 µM | > 100 µM | > 100 µM | 98.2 µM | > 100 µM | 32.4 µM |  | > 22.3 µM | > 100 µM | 24.7 µM | > 100 µM | 37 µM | > 90.1 µM | 25.4 µM |
| C[C@]12[C@@H]3CC[C@H]1[C@@H](O)C(=O)N2CC3 | > 100 µM | > 100 µM | > 100 µM | > 100 µM | > 100 µM | > 100 µM | > 100 µM |  | > 100 µM | > 100 µM | > 100 µM | > 100 µM | > 100 µM | > 100 µM | > 100 µM | > 100 µM | > 100 µM |
| O=C1/C(=C/c2ccco2)NC(=S)N1CN1CCCCC1 | > 100 µM | > 100 µM | > 100 µM | > 100 µM | > 100 µM | 86 µM | > 100 µM | > 100 µM | > 100 µM |  | > 100 µM | > 100 µM | > 100 µM | > 100 µM | > 100 µM | > 100 µM | > 100 µM |
| CCOC(=O)c1cn2c(n1)sc1cc(F)ccc12 | > 100 µM | > 100 µM | > 100 µM | > 100 µM | > 100 µM | > 100 µM | > 100 µM | > 100 µM | > 100 µM |  | > 100 µM | > 100 µM | > 100 µM | > 100 µM | > 100 µM | > 100 µM | > 100 µM |
| COC(=O)[C@]1(C)CCC[C@@]2(C)C1CC[C@@]13C=C(C(C)C)[C@@H](CC1=O)CC23 (some centres not stated) | > 100 µM | 30.2 µM | 68.3 µM | > 100 µM | 83.6 µM | > 100 µM | 83.9 µM | 39 µM | > 100 µM | 36.4 µM | > 100 µM | > 100 µM | 39.2 µM | 67.5 µM | > 100 µM | 64 µM |  |
| CSC(=O)c1sc(SC)[n+](-c2ccccc2)c1O | 29.2 µM | > 100 µM | 32 µM | > 100 µM | 42.5 µM | 24.9 µM | 32.1 µM | 52.9 µM | 39.7 µM |  | 27.2 µM | 59.7 µM | 30.1 µM | > 100 µM | 31.2 µM | 52.8 µM | 56.6 µM |
